The test system of this test is beta hCG. As to the kind of experiment: Beta hCG assay, AK-Ab1 particle + HRP-Ab2 conjugate. It counts as biochemical, human. Particulars: ascorbic acid employed. The procedure:
This example describes a method of detecting beta-human chorionic gonadotrophin (beta hCG) using an AK-Abl particle prepared as set forth in Example 3 and a HRP-Ab2 conjugate prepared as set forth in Example 4 where Ab2 represents an antibody to beta hCG. This method employed ascorbic acid to decrease background signal.
HRP-Ab2 conjugate suspensions were prepared at 1.0 μg/mL and contained either 0 or 1 mM ascorbic acid. Samples consisted of human serum samples with the indicated mounts of beta hCG added or no beta hCG as a control. The test procedure consisted of adding 20 μL of 1.0 μg/mL HRP-Ab2 conjugate and 30 μL of MES buffer containing 1 mg/mL BSA and 1 mg/mL MIgG, pH 5.9 to the reaction vessel. Next, 25 μL of patient serum sample was added, followed by 25 μL of 10 mg/mL AK-Abl conjugate suspension thereby obtaining 100 μL of total volume in the reaction vessel. After 15.2 minutes, 100 μL of trigger solution A was added to the reaction vessel and the light intensity was recorded on the modified DxI instrument. Chemiluminescence intensity is expressed in Relative Light Units (RLU).

With `O=C1O[C@H]([C@@H](O)CO)C(O)=C1O` [Ascorbic Acid, Ascorbic acid], the RLU is on record as 1,031 RLU (S0, beta hCG 0 IU/mL); 7,288 RLU (S1, beta hCG 4.35 IU/mL); 35,320 RLU (S2, beta hCG 20.81 IU/mL); 298,108 RLU (S3, beta hCG 127.285 IU/mL); 1,293,751 RLU (S4, beta hCG 413.455 IU/mL); 2,225,779 RLU (S5, beta hCG 775.805 IU/mL). Moreover, the S/S0 runs as follows: (S1, beta hCG 4.35 IU/mL) 7; (S2, beta hCG 20.81 IU/mL) 34; (S3, beta hCG 127.285 IU/mL) 289; (S4, beta hCG 413.455 IU/mL) 1,255; (S5, beta hCG 775.805 IU/mL) 2,159.

Source of the values: US20100273189A1, “NON SEPARATION ASSAYS WITH SELECTIVE SIGNAL INHIBITORS” (BECKMAN COULTER, INC., priority 2009, published 2010).
